From publication PMC6139576 (Journal of Medicinal Chemistry, 2018)
pIC50: −log10 of the molar value. Each block holds one compound with its values, some of them ahead of it.

Assays:
[1] = biological target: T1, human EAAT3 (hEAAT3) (Homo sapiens, UniProt P43005); test: [3H]-D-Asp uptake assay, hEAAT3-HEK293 cells; assay type: cell-based; details: hEAAT3 pIC50 ± S.E.M.
T1 sequence (P43005 1-524): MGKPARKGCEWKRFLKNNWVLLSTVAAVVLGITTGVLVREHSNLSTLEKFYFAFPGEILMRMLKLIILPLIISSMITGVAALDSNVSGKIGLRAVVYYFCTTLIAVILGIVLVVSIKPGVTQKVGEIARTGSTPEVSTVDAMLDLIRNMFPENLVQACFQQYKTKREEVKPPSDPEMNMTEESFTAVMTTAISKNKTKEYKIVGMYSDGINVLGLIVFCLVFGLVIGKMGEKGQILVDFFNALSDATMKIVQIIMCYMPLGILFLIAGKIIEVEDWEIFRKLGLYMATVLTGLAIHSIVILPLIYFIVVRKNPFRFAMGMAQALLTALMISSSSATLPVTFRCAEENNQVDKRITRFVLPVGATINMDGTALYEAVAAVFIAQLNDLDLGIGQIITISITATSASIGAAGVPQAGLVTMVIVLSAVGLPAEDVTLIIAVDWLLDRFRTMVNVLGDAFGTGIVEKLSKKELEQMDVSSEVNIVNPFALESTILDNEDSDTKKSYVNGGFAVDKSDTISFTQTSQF

[2] = biological target: T2, rat EAAT4 (rEAAT4) (Rattus norvegicus, UniProt O35921); test: [3H]-D-Asp uptake assay, rEAAT4-tsA201 cells; assay type: cell-based
T2 sequence (O35921 1-561): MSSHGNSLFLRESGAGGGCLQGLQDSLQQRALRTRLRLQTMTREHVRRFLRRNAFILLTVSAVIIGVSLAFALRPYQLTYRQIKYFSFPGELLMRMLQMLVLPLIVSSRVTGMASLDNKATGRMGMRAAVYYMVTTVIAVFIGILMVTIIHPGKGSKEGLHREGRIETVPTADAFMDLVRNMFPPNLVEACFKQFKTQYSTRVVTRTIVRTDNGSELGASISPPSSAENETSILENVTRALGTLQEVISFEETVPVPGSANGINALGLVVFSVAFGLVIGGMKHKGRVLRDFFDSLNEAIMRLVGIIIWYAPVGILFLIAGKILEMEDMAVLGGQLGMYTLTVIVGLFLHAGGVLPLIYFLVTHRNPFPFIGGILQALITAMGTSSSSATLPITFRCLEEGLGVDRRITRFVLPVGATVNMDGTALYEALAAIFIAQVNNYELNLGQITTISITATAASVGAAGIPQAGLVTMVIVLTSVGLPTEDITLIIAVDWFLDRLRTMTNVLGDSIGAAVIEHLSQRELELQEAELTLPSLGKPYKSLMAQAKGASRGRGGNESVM

[3] = biological target: human EAAT1 (hEAAT1) (Homo sapiens, UniProt P43003); test: [3H]-D-Asp uptake assay, hEAAT1-HEK293 cells; assay type: cell-based
[4] = biological target: human EAAT2 (hEAAT2) (Homo sapiens, UniProt P43004); test: [3H]-D-Asp uptake assay, hEAAT2-HEK293 cells; assay type: cell-based
[5] = system: EAAT3; details: cited from earlier work

human EAAT1 (hEAAT1), sequence (P43003 whole entry, the tested form may be a part): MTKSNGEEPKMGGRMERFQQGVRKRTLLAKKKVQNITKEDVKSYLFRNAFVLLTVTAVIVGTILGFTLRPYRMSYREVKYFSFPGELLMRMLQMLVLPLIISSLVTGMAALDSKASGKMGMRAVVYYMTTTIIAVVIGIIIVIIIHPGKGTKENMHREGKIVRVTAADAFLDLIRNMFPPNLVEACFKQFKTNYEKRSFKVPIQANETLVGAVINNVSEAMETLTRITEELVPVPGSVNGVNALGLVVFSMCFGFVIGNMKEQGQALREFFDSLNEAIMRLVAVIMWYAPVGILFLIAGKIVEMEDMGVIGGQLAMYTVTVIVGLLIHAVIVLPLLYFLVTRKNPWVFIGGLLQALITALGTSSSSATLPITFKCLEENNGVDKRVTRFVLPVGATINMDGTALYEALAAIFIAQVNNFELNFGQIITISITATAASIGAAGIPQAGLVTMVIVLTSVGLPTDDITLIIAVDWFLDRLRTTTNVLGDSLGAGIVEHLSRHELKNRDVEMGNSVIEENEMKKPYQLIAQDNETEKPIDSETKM
human EAAT2 (hEAAT2), sequence (P43004 whole entry, the tested form may be a part): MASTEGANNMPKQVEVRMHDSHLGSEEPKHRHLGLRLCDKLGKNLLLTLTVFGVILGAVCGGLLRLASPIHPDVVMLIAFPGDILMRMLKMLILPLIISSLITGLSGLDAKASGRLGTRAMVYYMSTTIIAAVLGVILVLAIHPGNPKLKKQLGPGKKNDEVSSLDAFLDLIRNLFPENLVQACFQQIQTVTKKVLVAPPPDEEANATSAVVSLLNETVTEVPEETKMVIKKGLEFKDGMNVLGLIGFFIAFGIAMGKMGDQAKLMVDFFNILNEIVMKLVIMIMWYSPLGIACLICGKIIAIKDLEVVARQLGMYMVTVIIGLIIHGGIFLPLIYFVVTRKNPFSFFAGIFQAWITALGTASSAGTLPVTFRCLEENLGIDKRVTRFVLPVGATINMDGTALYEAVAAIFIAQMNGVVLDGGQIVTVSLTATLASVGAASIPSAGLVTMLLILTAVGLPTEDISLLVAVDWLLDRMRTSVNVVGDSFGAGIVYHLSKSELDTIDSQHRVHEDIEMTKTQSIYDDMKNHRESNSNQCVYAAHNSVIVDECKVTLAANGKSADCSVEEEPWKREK

SMILES: N[C@H](C(=O)O)[C@H](OCc1cccc(NC(=O)Cc2ccc(C(F)(F)F)cc2)c1)C(=O)O [3d]
- fold increased IC50 at hEAAT1 relative to L-TFB-TBOA ([3]; versus L-TFB-TBOA (3a)): 5–10 fold
- fold increased IC50 at hEAAT2 relative to L-TFB-TBOA ([4]; versus L-TFB-TBOA (3a)): 5–10 fold
- fold increased IC50 at rEAAT4 relative to L-TFB-TBOA ([2]; versus L-TFB-TBOA (3a)): 5–10 fold

SMILES: C#CCO[C@H](C(=O)O)[C@@H](N)C(=O)O (racemic) [DL-erythro-19c, (DL-erythro)-3-(Prop-2-yn-1-yloxy)aspartate]
- pIC50 [1]: 4.55
- pIC50 ([3]; hEAAT1 IC50, [3H]-D-Asp uptake, HEK293 cells): 4.00
- pIC50 ([4]; hEAAT2 IC50, [3H]-D-Asp uptake, HEK293 cells): 4.09
- pIC50 [2]: ~4.00

SMILES: N[C@H](C(=O)O)[C@H](Cc1ccccc1)C(=O)O [compound 4, L-threo-3-benzylaspartate]
- preference as an inhibitor for EAAT3 over EAAT1 and EAAT2 [5]: 10 fold

Next, values leading:

- pIC50 [1]: 5.43
- pIC50 [2]: 4.80
SMILES: N[C@H](C(=O)O)[C@H](OCC1CC1)C(=O)O (racemic) [DL-threo-19a, (DL-threo)-3-(Cyclopropylmethoxy)aspartate]

- pIC50 [2]: 5.37
SMILES: N[C@H](C(=O)O)[C@H](OCc1ccsc1)C(=O)O (racemic) [DL-threo-19b, (DL-threo)-3-(Thiophen-3-ylmethoxy)aspartate]
